In ChEMBL document CHEMBL3865829 (Eur J Med Chem, 2016):

Experiments:
[1] = Antitumor activity against human A549 cells xenografted in BALB/c nude mouse assessed as tumor volume at 10 mg/kg, ig administered via oral gavage once daily for 14 consecutive days measured on day 4 (reference value: 419.55 +/- 104.72 mm3); assay type: functional
Mus musculus [2] = test: Toxicity in nude BALB/c mouse xenografted with human A549 cells assessed as mortality at 10 mg/kg, ig administered via oral gavage once daily for 14 consecutive days measured on day 30; assay type: organism-based; settings: in vivo
[3] = Antitumor activity against human Bel7404 cells xenografted in BALB/c nude mouse assessed as tumor volume at 10 mg/kg, ig administered via oral gavage once daily for 14 consecutive days measured on day 3 (reference value: 176.17 +/- 57.63 mm3); assay type: functional, BEL-7404
A549 [4] = test: Inhibition of PI3K in human A549 cells assessed as reduction in AKT phosphorylation at threonine308 residues after 30 mins by Western blot analysis; assay type: cell-based
[5] = Potency index, ratio of paclitaxel GI50 to compound GI50 against human NCI60 cells; assay type: functional
[6] = Antitumor activity against human Bel7404 cells xenografted in BALB/c nude mouse assessed as tumor volume at 10 mg/kg, ig administered via oral gavage once daily for 14 consecutive days measured on day 10 (reference value: 425.92 +/- 102.32 mm3); assay type: functional, BEL-7404
[7] = AUC (0 to infinity) in Sprague-Dawley rat at 2 mg/kg, iv by LCMS analysis; assay type: ADME, organism-based; parameters: dose 2 mg/kg, time infinity, route intravenous; settings: in vivo
[8] = Antitumor activity against human A549 cells xenografted in BALB/c nude mouse assessed as tumor volume at 10 mg/kg, ig administered via oral gavage once daily for 14 consecutive days measured on day 8 (reference value: 840.07 +/- 205.19 mm3); assay type: functional
[9] = Antitumor activity against human A549 cells xenografted in BALB/c nude mouse assessed as tumor volume at 10 mg/kg, ig administered via oral gavage once daily for 14 consecutive days measured on day 1 (reference value: 156.87 +/- 22.32 mm3); assay type: functional
cells = settings: Homo sapiens, HCT-116, 72 h
A549 [10] = test: Inhibition of mTORC2 in human A549 cells assessed as reduction in AKT phosphorylation at serine473 residues after 30 mins by Western blot analysis; assay type: cell-based
Mus musculus [11] = test: Toxicity in nude BALB/c mouse xenografted with human A549 cells assessed as body weight at 10 mg/kg, ig administered via oral gavage once daily for 14 consecutive days measured on day 1 (reference value: 24.38 +/- 0.76 g); assay type: organism-based; settings: in vivo
[12] = Cytotoxicity against human A549 cells after 72 hrs by MTT assay; assay type: functional, cell-based; settings: A549, 72 h
[13] = Cmax in Sprague-Dawley rat at 20 mg/kg administered via oral gavage as single dose by LCMS analysis; assay type: ADME, organism-based; parameters: dose 20 mg/kg, route oral; settings: in vivo
[14] = Antitumor activity against human A549 cells xenografted in BALB/c nude mouse assessed as tumor volume at 10 mg/kg, ig administered via oral gavage once daily for 14 consecutive days measured on day 18 (reference value: 3045.91 +/- 854.27 mm3); assay type: functional
[15] = Half life in Sprague-Dawley rat at 20 mg/kg administered via oral gavage as single dose by LCMS analysis; assay type: ADME, organism-based; settings: in vivo
[16] = Ratio of Cmax in Sprague-Dawley rat to IC50 for human A549 cells
[17] = Antitumor activity against human A549 cells xenografted in BALB/c nude mouse assessed as tumor growth inhibition at 10 mg/kg, ig administered via oral gavage once daily for 14 consecutive days measured on day 30 relative to control; assay type: functional; settings: 720 h, read-out: TGI
[18] = Antitumor activity against human A549 cells xenografted in BALB/c nude mouse assessed as tumor volume at 10 mg/kg, ig administered via oral gavage once daily for 14 consecutive days measured on day 11 (reference value: 1327.66 +/- 404.92 mm3); assay type: functional
Mus musculus [19] = test: Toxicity in nude BALB/c mouse xenografted with human A549 cells assessed as body weight at 10 mg/kg, ig administered via oral gavage once daily for 14 consecutive days measured on day 18 (reference value: 27.75 +/- 1.41 g); assay type: organism-based; settings: in vivo
[20] = Antitumor activity against human Bel7404 cells xenografted in BALB/c nude mouse assessed as tumor volume at 10 mg/kg, ig administered via oral gavage once daily for 14 consecutive days measured on day 14 (reference value: 589.54 +/- 162.22 mm3); assay type: functional, BEL-7404
[21] = Antitumor activity against human A549 cells xenografted in BALB/c nude mouse assessed as tumor volume at 10 mg/kg, ig administered via oral gavage once daily for 14 consecutive days measured on day 15 (reference value: 2071.51 +/- 682.84 mm3); assay type: functional
[22] = Time at which maximum plasma concentration stays above in vitro IC50 for human A549 cells in Sprague-Dawley rat at 20 mg/kg, po administered as single dose; assay type: ADME, organism-based; settings: in vivo
Mus musculus [23] = test: Toxicity in nude BALB/c mouse xenografted with human A549 cells assessed as body weight at 10 mg/kg, ig administered via oral gavage once daily for 14 consecutive days measured on day 15 (reference value: 27.12 +/- 1.43 g); assay type: organism-based; settings: in vivo
[24] = Antitumor activity against human Bel7404 cells xenografted in BALB/c nude mouse assessed as tumor volume at 10 mg/kg, ig administered via oral gavage once daily for 14 consecutive days measured on day 1 (reference value: 101.62 +/- 26.48 mm3); assay type: functional, BEL-7404
Mus musculus [25] = test: Toxicity in nude BALB/c mouse xenografted with human A549 cells assessed as body weight at 10 mg/kg, ig administered via oral gavage once daily for 14 consecutive days measured on day 11 (reference value: 26.11 +/- 1.06 g); assay type: organism-based; settings: in vivo
A549 [26] = test: Antitumor activity against human A549 cells xenografted in BALB/c nude mouse assessed as tumor growth inhibition administered ig via oral gavage once daily for 14 consecutive days measured on day 30; assay type: functional, cell-based
[27] = Antitumor activity against human Bel7404 cells xenografted in BALB/c nude mouse assessed as tumor volume at 10 mg/kg, ig administered via oral gavage once daily for 14 consecutive days measured on day 17 (reference value: 747.40 +/- 169.75 mm3); assay type: functional, BEL-7404
Mus musculus [28] = test: Toxicity in nude BALB/c mouse xenografted with human A549 cells assessed as body weight at 10 mg/kg, ig administered via oral gavage once daily for 14 consecutive days measured on day 4 (reference value: 24.77 +/- 0.93 g); assay type: organism-based; settings: in vivo
[29] = Half life in rat microsomes; assay type: ADME, Microsome
[30] = Antitumor activity against human Bel7404 cells xenografted in BALB/c nude mouse assessed as tumor volume at 10 mg/kg, ig administered via oral gavage once daily for 14 consecutive days measured on day 7 (reference value: 284.68 +/- 74.36 mm3); assay type: functional, BEL-7404
Mus musculus [31] = test: Toxicity in nude BALB/c mouse xenografted with human A549 cells assessed as body weight at 10 mg/kg, ig administered via oral gavage once daily for 14 consecutive days measured on day 8 (reference value: 25.66 +/- 1.04 g); assay type: organism-based; settings: in vivo
[32] = Cmax in Sprague-Dawley rat at 2 mg/kg, iv by LCMS analysis; assay type: ADME, organism-based; parameters: dose 2 mg/kg, route intravenous; settings: in vivo
[33] = AUC (0 to infinity) in Sprague-Dawley rat at 20 mg/kg administered via oral gavage as single dose by LCMS analysis; assay type: ADME, organism-based; parameters: dose 20 mg/kg, route oral, time infinity; settings: in vivo
[34] = Oral bioavailability in Sprague-Dawley rat at 20 mg/kg administered via gavage as single dose by LCMS analysis; assay type: ADME, organism-based; settings: in vivo
[35] = Potency index, ratio of camptothecin GI50 to compound GI50 against human NCI60 cells; assay type: functional
[36] = Antitumor activity against human Bel7404 cells xenografted in BALB/c nude mouse assessed as tumor growth inhibition at 10 mg/kg, ig administered via oral gavage once daily for 14 consecutive days measured on day 29; assay type: functional; settings: BEL-7404, po, 696 h, read-out: TGI

For COc1ncc(-c2ccc3nccc(-c4ccc(CN(C)C)cc4)c3c2)cc1NS(=O)(=O)c1ccc(F)cc1F, the Activity [1] was 224.6 mm3, the Activity (Mus musculus [2]) was “Non-Toxic” and the Activity [3] was 123.3 mm3. For the same compound, the inhibition (A549 [4]) was “Dose-dependent effect”, the RatioGI50 [5] was 2 and the Activity [6] was 152.31 mm3. It also gave an AUC(0-inf) [7] of 3740 ng·h/mL, an Activity [8] of 330.06 mm3 and an Activity [9] of 149.23 mm3. For the same compound, the IC50 (cells) was 3 nM, the inhibition (A549 [10]) was “Dose-dependent effect” and the Activity (Mus musculus [11]) was 25.13 g. It also gave an IC50 [12] of 4.4 nM, a Cmax [13] of 7120 ng/mL and an Activity [14] of 748.11 mm3. For the same compound, the half-life [15] was 4.41 h, the Ratio [16] was over 2800 and the inhibition in vivo at 10 mg/kg [17] was 73.5%. The Activity [18] was 432.38 mm3, the Activity (Mus musculus [19]) was 23.92 g and the Activity [20] was 187.5 mm3. It also gave an Activity [21] of 536.2 mm3, a Time [22] of 0.5 h and an Activity (Mus musculus [23]) of 23.42 g. The Activity [24] was 90.39 mm3, the Activity (Mus musculus [25]) was 23.77 g and the TGI (A549 [26]) was “Dose-dependent effect”. It also gave an Activity [27] of 220.21 mm3, an Activity (Mus musculus [28]) of 24.17 g and a half-life [29] of 0.767 h. It also gave an Activity [30] of 135.38 mm3, an Activity (Mus musculus [31]) of 24.23 g and a Cmax [32] of 1000 ng/mL. It also gave an AUC(0-inf) [33] of 35600 ng·h/mL, a bioavailability [34] of 95% and a RatioGI50 [35] of 2. The inhibition in vivo at 10 mg/kg [36] was 70.6%.
